Consider 31 compounds from patent US20160367557A1, “HE[…] ACID DERIVATIVES WHICH ARE USEFUL IN THE TREATMENT, AMELIORATION OR PREVENTION OF A VIRAL DISEASE” (Savira pharmaceuticals GmbH, priority 2012, published 2016).

The melting point is the temperature, or range, at which the solid turns liquid. Usually IC50 stands for the midpoint of a concentration-inhibition curve.

SMILES strings stand for the structures.

Data set [1] deals with influenza A virus (IAV) A/Aichi/2/68 (H3N2). The data set is described as follows: Cytopathic effect (CPE) assay. The conditions noted are these: MDCK cells, 48 hrs. The data set is classed as cell-based. On the technique in general: Damage to the host cells serves as the signal in cytopathic effect assays.
A further data set deals with MDCK cells. The data set is described as follows: Cytotoxicity in uninfected cells of the CPE assay. The data set is classed as cell-based, canine. The settings on record: at 50 μM. Here is the method: After removal of the culture medium and one washing step with PBS, virus and compound were added together to the cells. In the wells used for cytotoxicity determination (i.e. in the absence of viral infection), no virus suspension was added. Instead, infection medium was added. Each treatment was conducted in two replicates. After incubation at 37° C., 5% CO2 for 48 hrs, each well was observed microscopically for apparent cytotoxicity, precipitate formation, or other notable abnormalities. Then, cell viability was determined using CellTiter-Glo luminescent cell viability assay (Promega). The supernatant was removed carefully and 65 μl of the reconstituted reagent were added to each well and incubated with gentle shaking for 15 min at room temperature. Then, 60 μl of the solution was transferred to an opaque plate and luminescence (RLU) was measured using Synergy HT plate reader (Biotek).
Relative cell viability values of uninfected-treated versus uninfected-untreated cells were used to evaluate cytotoxicity of the compounds. Substances with a relative viability below 80% at the tested concentration were regarded as cytotoxic and retested at lower concentrations.

The target in data set [2] is T1, influenza A virus (IAV) PA-Nter fragment (amino acids 1-209) (Influenza A virus, UniProt P31343).
T1 construct: PA-Nter fragment (amino acids 1-209); made in house
Kind of data set: FRET endonuclease activity assay. The settings on record: for IC50: calculated from initial reaction velocities (v0). The data set is classed as biochemical.

`O=C(O)c1cn(CCc2ccccc2)c2cc(C3CC3)nn2c1=O` displayed a melting point of 185 to 190 °C. `O=C(O)c1cn(CCc2ccc(C(F)(F)F)cc2)c2cc(C3CC3)nn2c1=O` had a melting point of 225 to 230 °C. In turn, `O=C(O)c1cn(CCc2cccc(F)c2)c2cc(C3CC3)nn2c1=O` showed a melting point of 220 to 225 °C. The compound `CC(C)c1cc2n(Cc3ccccc3)cc(C(=O)O)c(=O)n2n1` gave a melting point of 180 to 185 °C. Same read-out and setting: under `O=C(O)Cc1c[nH]c2cc(C3CC3)nn2c1=O` stands more than 300 °C; under `CCOC(=O)c1c[nH]c2nc(Nc3ccc(NC(C)=O)cc3)nn2c1=O`, more than 330 °C.

The compound `CCOC(=O)Cc1c[nH]c2nc(Nc3ccccc3)nn2c1=O` registered a melting point of 255 to 257 °C. In the case of `CCOC(=O)c1cn(Cc2ccccc2)c2cc(C3CC3)nn2c1=O`, the melting point was in the range of 160 to 165 °C. `CCOC(=O)c1cn(CCc2ccc(Cl)cc2)c2cc(C3CC3)nn2c1=O` registered a melting point of 190 to 195 °C. Regarding `CCOC(=O)c1cn(CCc2ccc(OC)cc2)c2cc(C3CC3)nn2c1=O`, the melting point fell in the range of 160 to 165 °C. With `CCOC(=O)c1cn(CCc2cccc(F)c2)c2cc(C3CC3)nn2c1=O`, the melting point was in the range of 160 to 165 °C. On to `CCOC(=O)c1cn(CCc2cccc(C(F)(F)F)c2)c2cc(C3CC3)nn2c1=O`, for which the melting point is 140 to 145 °C. Turning to `CCOC(=O)c1cn(CCCc2ccccc2)c2cc(C3CC3)nn2c1=O`, the melting point lay in the range of 150 to 155 °C. As to `CCOC(=O)c1cn(Cc2ccccc2)c2cc(C(C)C)nn2c1=O`, the melting point was 135 to 140 °C.

On to `CCOC(=O)c1cn(Cc2ccccc2)c2cc(C3CCCC3)nn2c1=O`, for which the melting point was in the range of 148 to 150 °C. In turn, `CCOC(=O)c1c[nH]c2cc(C(=O)NCCc3ccc(Cl)cc3)nn2c1=O` had a melting point of more than 300 °C. On to `O=C(O)c1c[nH]c2nc(NCc3cccc4ccccc34)nn2c1=O`, for which the melting point is 245 to 250 °C. Take `CSC1=NC2C(=O)C(C(=O)O)=CN(Cc3ccccc3-c3ccccc3)C2S1` (centres unmarked): the “CPE activity in words” value in data set [1] was “inactive”. For the same compound, the “Cytotoxicity (relative viability below 80% regarded as cytotoxic)” value with MDCK cells is recorded as “Toxic”. For the compound `O=C(O)c1cn(Cc2ccccc2-c2ccccc2)c2nc(NCc3ccccc3)sc2c1=O`, the “FRET activity in words” value in data set [2] was “inactive”. On to `O=C(O)c1cn(Cc2ccccc2-c2ccccc2)c2sc(NC3CCCC3)nc2c1=O`, for which the “CPE activity in words” value in data set [1] was “inactive”. Besides, in the data set on MDCK cells, the “Cytotoxicity (relative viability below 80% regarded as cytotoxic)” value is “toxic”. Consider `O=C(O)c1cn(Cc2ccccc2-c2ccccc2)c2sc(N3CCCCC3)nc2c1=O`, for which the “FRET activity in words” value in data set [2] was “inactive”. As for `CNC(=O)c1cn(Cc2ccccc2-c2ccccc2)c2sc(NCc3ccccc3)nc2c1=O`, the “FRET activity in words” value in data set [2] is “inactive”. As for `O=C(O)c1cn(Cc2ccccc2-c2ccccc2)c2nc(NC3CCCC3)sc2c1=O`, the “FRET activity in words” value in data set [2] was “inactive”. For the compound `O=C(O)c1cn(Cc2ccccc2-c2ccccc2)c2sc(NS(=O)(=O)c3ccc(Cl)cc3)nc2c1=O`, the IC50 was 2.2 µM in data set [2] and 18 µM in data set [1] (Influenza A virus, H3N2). Turning to `CCOC(=O)c1cn(Cc2ccccc2-c2ccccc2)c2sc(NS(=O)(=O)c3ccc(Cl)cc3F)nc2c1=O`, the “FRET activity in words” value in data set [2] was “inactive”. Besides, the IC50 in data set [1] (Influenza A virus, H3N2) was 39 µM.

Regarding `O=CNc1nc2c(=O)c(C(=O)O)cn(Cc3ccccc3-c3ccccc3)c2s1`, the IC50 in data set [2] is 47 µM. Also, in data set [1], the “CPE activity in words” value is “inactive”. Turning to `CCOC(=O)c1cn(Cc2ccccc2-c2ccccc2)c2sc(SC)nc2c1=S`, the “FRET activity in words” value in data set [2] is “inactive”. In addition, the inhibition at 50 µM in data set [1] (Influenza A virus, H3N2, @ 50 μM, read-out: CPE % reduction) was 35%. As for `Cc1[nH]c2ncnn2c(=O)c1CC(=O)O`, the “FRET activity in words” value in data set [2] is “inactive”.

Consider `O=C(O)c1c[nH]c2ccnn2c1=O` [drawing 208], for which the inhibition at 5 µM in data set [2] (20 min, @ 5 μM, read-out: FRET % reduction of v0) was determined as 26%. For `O=C(O)c1cn(CCc2ccccc2)c2cc(C3CCCC3)nn2c1=O` [drawing 219], the “FRET % reduction of v0” value in data set [2] (@ 25 μM) is on record as 26% @ 25 μM. The “CPE activity in words” value in data set [1] was “inactive”. `Nc1cc2n(C(=O)C3(c4ccccc4)CCCC3)cc(C(=O)O)c(=O)n2n1` [drawing 232]: the “FRET activity in words” value in data set [2] was “inactive”.
